Assay results reported in patent publication US6844353B2, “Fungicidal properties of sampangine and its analogs to agriculturally important fungal plant pathogens” (The United States of America as represented by the …, priority 2003, dated 2005).
Like-named read-outs stand apart in the source and are kept apart here.

Key:
Assay in all cases: 96-well microtiter plate assay, fungal growth inhibition
C. acutatum = assay type: cell-based, Colletotrichum acutatum; conditions: for Percent inhibition−Percent Stimulation±SEM: C. acutatum; for inhibition at 0.3 µM / inhibition at 3 µM / inhibition at 30 µM: Colletotrichum acutatum, read-out: Percent inhibition−Percent Stimulation±SEM
From the text: (§1) Pathogen production. Isolates of Colletotrichum acutatum Simmonds, Colletotrichum fragariae Brooks, and Colletotrichum gloeosporioides (Penz.) Penz. & Sacc. in Penz. were obtained from B. J. Smith, USDA, ARS, Small Fruit Research Station, Poplarville, Miss. Colletotrichum fragariae (isolate CF63), C. acutatum (isolate CAGoff), and C. gloeosporioides (isolate CG162) were used for all pathogen and bioautography studies. Isolate CF63 is one of the most virulent isolates at infecting strawberry plants and inducing both crown and fruit rot (Smith and Black, 1990). CF63, CAGoff, and CG162 were used as standard test isolates because of our extensive knowledge of these isolates and their known fungicide sensitivity profiles in both bioautography and microtiter formats. The three Colletotrichum species were isolated from strawberry (Fragaria x ananassa Duchesne). Botrytis cinerea Pers.: Fr, was isolated from commercial grape (Vitis vinifera L.) and Fusarium oxysporum Schlechtend: Fr from orchid (Cynoches sp.). Phomopsis viticola (Sacc.) and P. obscurans (Ellis & Everh.) Sutton were from Mike A. Ellis, Ohio State University, Wooster, Ohio. Fungi were grown on potato-dextrose agar (PDA, Difco, Detroit, Mich.) in 9 cm petri dishes and incubated in a growth chamber at 24±2° C. and under cool-white fluorescent lights ([…]·m^−2·sec^−1 light) with 12 hour photoperiod.
(§2) Inoculum preparation. Conidia were harvested from 7-10 day-old cultures by flooding plates with 5 mL of sterile distilled water and dislodging conidia by softly brushing the colonies with an L-shaped glass rod. Conidial suspensions were filtered through sterile miracloth (Calbiochem-Novabiochem Corp., La Jolla, Calif.) to remove mycelia. Conidia concentrations were determined photometrically, from a standard curve based on the percent of transmittance (% T) at 625 nm and suspensions were then adjusted with sterile distilled water to a concentration of 1.0×10^6 conidia/mL.
(§3) Microtiter assay. A standardized 96-well microtiter plate assay developed for discovery of natural product fungicidal agents was used to evaluate naturally occurring antifungal agents from Macaranga monanara. A 96-well microtiter assay was used to determine sensitivity of B. cinerea, C. acutatum, C. fragariae, C. gloeosporioides, F. oxysporum, Phomopsis viticola, and P. obscurans to the various antifungal agents in comparison with known fungicidal standards. Vinclozolin, captan, and thiabendazole, which represent three different modes of action, were used as standards in this experiment. Each fungus was challenged in a dose-response format using test compounds where the final treatment concentrations were 0.3, 3.0 and 30.0 μM. Microtiter plates (Nunc MicroWell, untreated; Roskilde, Denmark) were covered with a plastic lid and incubated in a growth chamber as described previously for fungal growth. Growth was then evaluated by measuring absorbance of each well at 620 nm using a microplate photometer (Packard Spectra Count, Packard Instrument Co., Downers Grove, Ill.). Microtiter plates (Nunc MicroWell, untreated; Roskilde, Denmark) were covered with a plastic lid and incubated in a growth chamber at 24±1° C. and 12 hour photoperiod under 60±5 μmol light. Growth was then evaluated by measuring absorbance of each well at 620 nm using a microplate photometer (Packard Spectra Count, Packard Instrument Co., Downers Grove, Ill.).
(§4) Microbioassy Experimental Design. Chemical sensitivity each of B. cinerea, C. acutatum, C. fragariae, C. gloeosporiodes, F. oxysporum, Phomopsis viticola, and P. obscurans was evaluated using 96-well plate microbioassay format. Each chemical was evaluated in duplicate at each dose (0.3, 3.0 and 30.0 μM). […]

C. fragariae = assay type: cell-based, Colletotrichum fragariae; conditions: for Percent inhibition−Percent Stimulation±SEM: C. fragariae; for inhibition at 0.3 µM / inhibition at 3 µM / inhibition at 30 µM: Colletotrichum fragariae, read-out: Percent inhibition−Percent Stimulation±SEM
From the text: as §1, §2, §3, §4

B. cinerea = assay type: cell-based, Botrytis cinerea; conditions: for Percent inhibition−Percent Stimulation±SEM: B. cinerea; for inhibition at 0.3 µM / inhibition at 3 µM / inhibition at 30 µM: Botrytis cinerea, read-out: Percent inhibition−Percent Stimulation±SEM
From the text: as §1, §2, §3, §4

F. oxysporum = assay type: cell-based, Fusarium oxysporum; conditions: for Percent inhibition−Percent Stimulation±SEM: F. oxysporum; for inhibition at 0.3 µM / inhibition at 3 µM / inhibition at 30 µM: Fusarium oxysporum, read-out: Percent inhibition−Percent Stimulation±SEM
From the text: as §1, §2, §3, §4

C. gloeosporioides = assay type: cell-based, Colletotrichum gloeosporioides; conditions: for Percent inhibition−Percent Stimulation±SEM: C. gloeosporioides; for inhibition at 0.3 µM / inhibition at 3 µM / inhibition at 30 µM: Colletotrichum gloeosporioides, read-out: Percent inhibition−Percent Stimulation±SEM
From the text: as §1, §2, §3, §4

SMILES: O=C1c2ccccc2-c2nccc3c2c1nc1ccccc13 [Benzo[4,5]sampangine, benzo[4,5]sampangine]
- Percent inhibition−Percent Stimulation±SEM (C. acutatum; 0.3 μM, 48 hrs): −30.5 ± 10.2%
- Percent inhibition−Percent Stimulation±SEM (C. acutatum; 0.3 μM, 72 hrs): −25.9 ± 8.0%
- Percent inhibition−Percent Stimulation±SEM (C. acutatum; 3.0 μM, 48 hrs): −74.2 ± 6.3%
- Percent inhibition−Percent Stimulation±SEM (C. acutatum; 3.0 μM, 72 hrs): −46.2 ± 5.2%
- Percent inhibition−Percent Stimulation±SEM (C. acutatum; 30 μM, 48 hrs): −57.0 ± 10.0%
- Percent inhibition−Percent Stimulation±SEM (C. acutatum; 30 μM, 72 hrs): −38.9 ± 5.2%
- Percent inhibition−Percent Stimulation±SEM (C. fragariae; 0.3 μM, 48 hrs): −38.4 ± 6.1%
- Percent inhibition−Percent Stimulation±SEM (C. fragariae; 0.3 μM, 72 hrs): −19.8 ± 7.7%
- Percent inhibition−Percent Stimulation±SEM (C. fragariae; 3.0 μM, 48 hrs): −72.4 ± 8.5%
- Percent inhibition−Percent Stimulation±SEM (C. fragariae; 3.0 μM, 72 hrs): −54.7 ± 11.2%
- Percent inhibition−Percent Stimulation±SEM (C. fragariae; 30 μM, 48 hrs): −52.9 ± 6.5%
- Percent inhibition−Percent Stimulation±SEM (C. fragariae; 30 μM, 72 hrs): −29.4 ± 6.8%
- Percent inhibition−Percent Stimulation±SEM (B. cinerea; 0.3 μM, 48 hrs): −70.2 ± 5.8%
- Percent inhibition−Percent Stimulation±SEM (B. cinerea; 0.3 μM, 72 hrs): −55.2 ± 8.1%
- Percent inhibition−Percent Stimulation±SEM (B. cinerea; 3.0 μM, 48 hrs): −78.0 ± 3.6%
- Percent inhibition−Percent Stimulation±SEM (B. cinerea; 3.0 μM, 72 hrs): −46.7 ± 10.2%
- Percent inhibition−Percent Stimulation±SEM (B. cinerea; 30 μM, 48 hrs): −99.2 ± 19.4%
- Percent inhibition−Percent Stimulation±SEM (B. cinerea; 30 μM, 72 hrs): −22.8 ± 14.7%
- Percent inhibition−Percent Stimulation±SEM (F. oxysporum; 0.3 μM, 48 hrs): −48.2 ± 4.4%
- Percent inhibition−Percent Stimulation±SEM (F. oxysporum; 0.3 μM, 72 hrs): −17.1 ± 2.0%
- Percent inhibition−Percent Stimulation±SEM (F. oxysporum; 3.0 μM, 48 hrs): −77.7 ± 5.7%
- Percent inhibition−Percent Stimulation±SEM (F. oxysporum; 3.0 μM, 72 hrs): −27.2 ± 6.2%
- Percent inhibition−Percent Stimulation±SEM (F. oxysporum; 30 μM, 48 hrs): −57.9 ± 3.2%
- Percent inhibition−Percent Stimulation±SEM (F. oxysporum; 30 μM, 72 hrs): −27.2 ± 1.9%
- Percent inhibition−Percent Stimulation±SEM (C. gloeosporioides; 0.3 μM, 48 hrs): −100.0 ± 1.0%
- Percent inhibition−Percent Stimulation±SEM (C. gloeosporioides; 0.3 μM, 72 hrs): −100.0 ± 0.3%
- Percent inhibition−Percent Stimulation±SEM (C. gloeosporioides; 3.0 μM, 48 hrs): −98.6 ± 1.1%
- Percent inhibition−Percent Stimulation±SEM (C. gloeosporioides; 3.0 μM, 72 hrs): −99.7 ± 0.4%
- Percent inhibition−Percent Stimulation±SEM (C. gloeosporioides; 30 μM, 48 hrs): −100.0 ± 1.8%
- Percent inhibition−Percent Stimulation±SEM (C. gloeosporioides; 30 μM, 72 hrs): −100.0 ± 0.9%

SMILES: COc1cnc2c3c(nccc13)-c1ccccc1C2=O [4-methoxysampangine]
- Percent inhibition−Percent Stimulation±SEM (C. acutatum; 0.3 μM, 48 hrs): −5.1 ± 7.8%
- Percent inhibition−Percent Stimulation±SEM (C. acutatum; 0.3 μM, 72 hrs): −0.3 ± 6.4%
- Percent inhibition−Percent Stimulation±SEM (C. acutatum; 3.0 μM, 48 hrs): −75.1 ± 6.8%
- Percent inhibition−Percent Stimulation±SEM (C. acutatum; 3.0 μM, 72 hrs): −44.1 ± 6.5%
- Percent inhibition−Percent Stimulation±SEM (C. acutatum; 30 μM, 48 hrs): −51.3 ± 6.2%
- Percent inhibition−Percent Stimulation±SEM (C. acutatum; 30 μM, 72 hrs): −25.4 ± 5.4%
- Percent inhibition−Percent Stimulation±SEM (C. fragariae; 0.3 μM, 48 hrs): −15.0 ± 7.5%
- Percent inhibition−Percent Stimulation±SEM (C. fragariae; 0.3 μM, 72 hrs): −30.2 ± 7.4%
- Percent inhibition−Percent Stimulation±SEM (C. fragariae; 3.0 μM, 48 hrs): −75.2 ± 6.7%
- Percent inhibition−Percent Stimulation±SEM (C. fragariae; 3.0 μM, 72 hrs): −44.3 ± 6.5%
- Percent inhibition−Percent Stimulation±SEM (C. fragariae; 30 μM, 48 hrs): −67.9 ± 13.6%
- Percent inhibition−Percent Stimulation±SEM (C. fragariae; 30 μM, 72 hrs): −39.6 ± 6.3%
- Percent inhibition−Percent Stimulation±SEM (B. cinerea; 0.3 μM, 48 hrs): −23.0 ± 14.4%
- Percent inhibition−Percent Stimulation±SEM (B. cinerea; 0.3 μM, 72 hrs): −4.8 ± 12.6%
- Percent inhibition−Percent Stimulation±SEM (B. cinerea; 3.0 μM, 48 hrs): −59.2 ± 6.7%
- Percent inhibition−Percent Stimulation±SEM (B. cinerea; 3.0 μM, 72 hrs): −18.4 ± 5.4%
- Percent inhibition−Percent Stimulation±SEM (B. cinerea; 30 μM, 48 hrs): −20.3 ± 21.8%
- Percent inhibition−Percent Stimulation±SEM (B. cinerea; 30 μM, 72 hrs): 19.0 ± 14.3%
- Percent inhibition−Percent Stimulation±SEM (F. oxysporum; 0.3 μM, 48 hrs): −10.3 ± 4.7%
- Percent inhibition−Percent Stimulation±SEM (F. oxysporum; 0.3 μM, 72 hrs): 2.9 ± 4.2%
- Percent inhibition−Percent Stimulation±SEM (F. oxysporum; 3.0 μM, 48 hrs): −66.8 ± 5.5%
- Percent inhibition−Percent Stimulation±SEM (F. oxysporum; 3.0 μM, 72 hrs): −33.5 ± 1.9%
- Percent inhibition−Percent Stimulation±SEM (F. oxysporum; 30 μM, 48 hrs): −43.6 ± 2.7%
- Percent inhibition−Percent Stimulation±SEM (F. oxysporum; 30 μM, 72 hrs): −23.5 ± 1.6%
- Percent inhibition−Percent Stimulation±SEM (C. gloeosporioides; 0.3 μM, 48 hrs): −48.5 ± 6.7%
- Percent inhibition−Percent Stimulation±SEM (C. gloeosporioides; 0.3 μM, 72 hrs): −15.6 ± 1.9%
- Percent inhibition−Percent Stimulation±SEM (C. gloeosporioides; 3.0 μM, 48 hrs): −94.4 ± 0.9%
- Percent inhibition−Percent Stimulation±SEM (C. gloeosporioides; 3.0 μM, 72 hrs): −91.1 ± 2.1%
- Percent inhibition−Percent Stimulation±SEM (C. gloeosporioides; 30 μM, 48 hrs): −95.9 ± 3.4%
- Percent inhibition−Percent Stimulation±SEM (C. gloeosporioides; 30 μM, 72 hrs): −79.7 ± 6.0%

SMILES: Cc1cc(C2CC2)nc(Nc2ccccc2)n1 [Cyprodinil]
- inhibition at 0.3 µM (C. acutatum; 48 h): 99.8 ± 0.2%
- inhibition at 3 µM (C. acutatum; 48 h): 98.6 ± 0.6%
- inhibition at 30 µM (C. acutatum; 48 h): 98.7 ± 0.5%
- inhibition at 0.3 µM (C. acutatum; 72 h): 85.1 ± 4.3%
- inhibition at 3 µM (C. acutatum; 72 h): 99.3 ± 2.2%
- inhibition at 30 µM (C. acutatum; 72 h): 97.9 ± 0.3%
- inhibition at 0.3 µM (C. fragariae; 48 h): 98 ± 1.6%
- inhibition at 3 µM (C. fragariae; 48 h): 91.3 ± 1.3%
- inhibition at 30 µM (C. fragariae; 48 h): 91.1 ± 7%
- inhibition at 0.3 µM (C. fragariae; 72 h): 82.6 ± 6.2%
- inhibition at 3 µM (C. fragariae; 72 h): 83.7 ± 1.8%
- inhibition at 30 µM (C. fragariae; 72 h): 93 ± 0.4%
- inhibition at 0.3 µM (B. cinerea; 48 h): 75.3 ± 21%
- inhibition at 3 µM (B. cinerea; 48 h): 29.4 ± 31.3%
- inhibition at 30 µM (B. cinerea; 48 h): 2.5 ± 31.6%
- inhibition at 0.3 µM (B. cinerea; 72 h): 61.3 ± 24.4%
- inhibition at 3 µM (B. cinerea; 72 h): 51.3 ± 30%
- inhibition at 30 µM (B. cinerea; 72 h): 27.3 ± 28.2%
- inhibition at 0.3 µM (F. oxysporum; 48 h): -5.4 ± 4.8%
- inhibition at 3 µM (F. oxysporum; 48 h): 16.9 ± 5.5%
- inhibition at 30 µM (F. oxysporum; 48 h): 69.1 ± 4.6%
- inhibition at 0.3 µM (F. oxysporum; 72 h): -5.1 ± 2.8%
- inhibition at 3 µM (F. oxysporum; 72 h): 6.2 ± 2.5%
- inhibition at 30 µM (F. oxysporum; 72 h): 31.3 ± 4.9%
- inhibition at 0.3 µM (C. gloeosporioides; 48 h): 84.3 ± 2.3%
- inhibition at 3 µM (C. gloeosporioides; 48 h): 91.3 ± 1.3%
- inhibition at 30 µM (C. gloeosporioides; 48 h): 91.1 ± 7%
- inhibition at 0.3 µM (C. gloeosporioides; 72 h): 55.7 ± 4.6%
- inhibition at 3 µM (C. gloeosporioides; 72 h): 83.7 ± 1.8%
- inhibition at 30 µM (C. gloeosporioides; 72 h): 93 ± 0.4%
